The subject of one experiment is viability. Particulars: some effects on DNA damage response and mutagenesis; cited from earlier work.
The next experiment addresses T1, B. subtilis DnaN (Bacillus subtilis, UniProt P05649).
T1 sequence (P05649 1-378): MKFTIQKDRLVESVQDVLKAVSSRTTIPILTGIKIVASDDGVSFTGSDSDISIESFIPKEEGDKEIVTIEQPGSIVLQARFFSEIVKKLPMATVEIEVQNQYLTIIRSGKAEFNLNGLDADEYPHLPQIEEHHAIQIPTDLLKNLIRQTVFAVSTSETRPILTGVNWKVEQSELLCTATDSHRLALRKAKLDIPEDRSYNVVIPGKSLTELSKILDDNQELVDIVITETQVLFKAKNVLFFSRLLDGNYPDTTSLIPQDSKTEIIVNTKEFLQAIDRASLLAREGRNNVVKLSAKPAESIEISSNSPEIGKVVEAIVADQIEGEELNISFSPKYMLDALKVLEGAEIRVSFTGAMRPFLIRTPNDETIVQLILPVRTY
It is filed as binding.

A further experiment deals with E. coli clamp. The settings on record: cited from earlier work.

Entries after “also recorded” stand apart in the source; their conditions may differ.

Results on four substances are retold here after paper PMC11952451 (bioRxiv, 2025).

For the substance ATSMAF [εQ], in the experiment with viability, the effect on viability entry is “no effect on viability”.
Turning to FAM-Ahx-DDAMGLALDE-NH2, the “binding (FP response)” value on B. subtilis DnaN (pH 7.5) is “lack of binding; also recorded: deficient in clamp binding in FP assays”.
Turning to QLSLF, the “affinity class in words” value is “only micromolar affinity” on B. subtilis DnaN and “submicromolar affinity” in the experiment on E. coli clamp.
As to QLSLPL [εL], in the experiment on viability, the effect on viability entry is “no effect on viability”.
